Measurements published in patent publication US11800869B2, “Use of 6-oxo-1,4,5,6-tetrahydropyridazine-3-carboxylic acid, 1-methyl 6-oxo-1,4,5,6-tetrahydropyridazine-3-carboxylic acid and 1-alkyl-6-oxo-1,4,5,6-tetrahydropyridazine-3-carboxylic acid for improving growth performance in plants” (Advanced Crop Chem LLP, priority 2020, dated 2023).

Assays:
Assay type in all cases: in vivo
[1] = system: Field grown wheat plants (Var: AWC 13); assay: Foliar treatment of field grown wheat (Example 6); conditions: foliar treatment at Zadoks GS 25-26, 100 g in 200 L water, mean of 10 plants
Procedure: Field grown wheat plants (Var: AWC 13) were given foliar treatment at Zadoks GS 25-26 (FIG. 1) of 6-oxo-1,4,5,6 tetrahydropyridazine-3-carboxylic acid (THP) or 1-methyl 6-oxo-1,4,5,6 tetrahydropyridazine-3-carboxylic acid (MTHP) both at 100 g in 200 L water plus 0.25% Nouryon wetter. Plants were grown under standard UK wheat growing cultural practice (https://andb.org.uk/wheatgg). Yield was assessed at harvest.

[2] = system: Corn; assay: Seed treatment plus foliar spray, root and shoot biomass and emergence, corn (Example 2)
Procedure: Winter wheat variety AWC 13 seeds were treated with either 6-oxo-1,4,5,6-tetrahydropyridazine-3-carboxylic acid (THP) or 1-methyl 6-oxo-1,4,5,6 tetrahydropyridazine-3-carboxylic acid (MTHP) at an effective rate of 10g diluted in 2 L water plus 0.25% Nouryon wetter and applied to 1 ton of seed. These seed were planted in coarse river sand and grown in a greenhouse under ambient light at the greenhouse at 21° C. Plants were irrigated every other day with water containing 50% strength Hoaglands solution. Plants were assessed for emergence and biomass accumulation 30 days after planting. The plants from seeds treated with 6-oxo-1,4,5,6-tetrahydropyridizin-3-carboxylic acid or 1-methyl 6-oxo-1,4,5,6 tetrahydropyridazine-3-carboxylic acid had larger root biomasses (0.83, 0.85 g, dry weight/plant) compared with plants from untreated seeds (0.65 g dry weight/plant). Wheat, corn and pepper seeds were treated with 6-oxo-1,4,5,6-tetrahydropyridizine-3-carboxylic acid (THP) using the same methodology and growth conditions as described in example 1 and the resulting plants were also treated with a light foliar cover spray using an electric hand-held sprayer. (100 g in 200 L water plus 0.25% Nouryon wetter) of 6-oxo-1,4,5,6 tetrahydropyridazine-3-carboxylic acid (30 days post emergence (wheat at Zadoks GS 14 (see FIG. 1), maize at V2, Pepper at 3-4 leaf stage) and then assessed for root and shoot biomass 45 days later. At 75 days post planting the plants were assessed for root and shoot biomass as measured with dry weight.

[3] = system: wheat (Var. VitPro) seedlings; assay: Foliar treatment of wheat, relative water content under drought stress (Example 17); conditions: drought stressed, flag leaves, untreated drought stressed 35.8%
Procedure: Wheat seedlings were given foliar treatments with a range of concentrations of 6-oxo-1,4,5,6 tetrahydropyridazine-3-carboxylic acid and the seedlings were grown to near maturity and drought stressed. Their relative water contents were determined to examine the effectiveness of different concentrations of 6-oxo-1,4,5,6-tetrahydropyridizine-3-carboxylic acid in conferring drought resistance.
Sets of wheat (Var. VitPro) seedlings were given foliar treatments of 6-oxo-1,4,5,6 tetrahydropyridazine-3-carboxylic acid at concentrations of 1 mM or 0.1 mM in aqueous solutions. Two treatments were made; one at Zaddok GS 12(FIG. 1) and a second at Zadoks GS 14 (FIG. 1) and the plants grown until the first flag leaf was fully developed on the control plants. The treated plants and one set of controls were then drought stressed and the relative water content was determined for each set of plants. There were two sets of control plants; one was maintained with normal watering and a second control was drought stressed along with the treated plants. When each of the plants had at least two wilted leaves the water content of the drought stressed plants was determined relative to that of the normal, well-watered control plants. The flag leaves were harvested and used to determine the relative water content.

[4] = system: wheat seedlings (Var. VitPro); assay: Foliar treatment of wheat seedlings, number of tillers (Example 13); conditions: counted at Zadoks GS 15, untreated 3.7
Procedure: Wheat seedlings were given foliar treatments with a range of concentrations of 6-oxo-1,4,5,6 tetrahydropyridazine-3-carboxylic acid and the seedlings were grown and the numbers of tillers each plant produced was monitored as shown in Table 4. The number of tillers is considered positively related to grain yield. Sets of wheat seedlings (Var. VitPro) were given foliar treatments of 6-oxo-1,4,5,6 tetrahydropyridazine-3-carboxylic acid at concentrations of 0.1 mM, 0.01 mM or 0.001 mM *in a standard nutrient solution. Seedlings were given one foliar treatment at Zadoks GS 12 (FIG. 1); the plants grown in a greenhouse and fed a standard plant nutrient solution. The untreated control plants were sprayed with the nutrient solution containing sodium dodecyl sulfate, 0.1% and glycerol 1.2%. The number of tillers for each plant were counted at Zadoks GS 15 (FIG. 1) and the average number of tillers per plant calculated.

[5] = system: Wheat; assay: Foliar treatment dose series, root and shoot fresh weight, wheat (Example 8); conditions: 35 days post treatment; for Root, FWt: dose 0: 1.8; for Shoot, FWt: dose 0: 3.2
Procedure: Corn and wheat plants were given a foliar treatment […] (as described in Example 2) with 6-oxo-1,4,5,6 tetrahydropyridazine-3-carboxylic acid (THP) and then assessed for root and shoot biomass. Three treatment dosages were applied (Table 2). Plants were grown in a greenhouse with a diurnal cycle of 55-75F with ambient light. The plants were grown in a coarse river sand in 4″ pots with 0.5 g of Osmacote/pot. The mean root and shoot fresh weights were assessed at 35 days post treatment.

[6] = system: Wheat seeds (Var. VitPro); assay: Wheat seed treatment, leaf wilting under drought (Example 16); conditions: Drought stress; for Wilted leaves: 0 mM: 40; for Total leaves: 0 mM: 47; for % Wilted leaves: 0 mM: 85%
Procedure: Wheat seeds were treated with 6-oxo-1,4,5,6 tetrahydropyridazine-3-carboxylic and leaf wilting was tracked to examine the resistance to drought in the seedlings as shown in Table 6. Wheat seeds (Var. VitPro) were treated with an aqueous solution of either 0 mM, 1 mM, 0.5 mM, 0.1 mM or 0.01 mM 6-oxo-1,4,5,6 tetrahydropyridazine-3-carboxylic acid at pH 5.7-5.8. The 0 mM 6-oxo-1,4,5,6-tetrahydropyridizine-3-carboxylic acid seeds were imbibed in aqueous solution containing only the soft soap and glycerol. The plants were allowed to grow to Zadoks GS13 (FIG. 1) when water was withheld until plants in all of the treatments had wilted leaves.

[7] = seed treatment plus foliar spray 100 g in 200 L, 75 days post planting
[8] = foliar dose 50 g/ha in 200 L/ha
[9] = foliar dose 100 g/ha in 200 L/ha
[10] = foliar dose 200 g/ha in 200 L/ha

Compound: O=C1CCC(C(=O)O)=NN1 [THP, 6-oxo-1,4,5,6 tetrahydropyridazine-3-carboxylic acid]
- Dry Weight Shoot ([1]; Con 0.47): 1.01
- Dry Weight Root ([1]; Con 0.65): 1.5
- Root Dry Weight, % Difference vs Untreated [2, 7]: 8%
- Shoot Dry Weight, % Difference vs Untreated [2, 7]: 3%
- Emergence, % Difference vs Untreated ([2]; seed treatment, % Emergence at 10 days post planting): 11%
- water content retained, relative to normally watered plants ([3]; two foliar treatments 0.1 mM): 67.7%
- water content retained, relative to normally watered plants ([3]; two foliar treatments 1 mM): 68.3%
- Tillers per plant, average ([4]; foliar treatment 0.001 mM at Zadoks GS 12): 4.1
- Tillers per plant, average ([4]; foliar treatment 0.01 mM at Zadoks GS 12): 9.5
- Tillers per plant, average ([4]; foliar treatment 0.1 mM at Zadoks GS 12): 7.4
- Root, FWt [5, 8]: 2.1 g
- Shoot, FWt [5, 8]: 4.4 g
- Root, FWt [5, 9]: 1.9 g
- Shoot, FWt [5, 9]: 5.2 g
- Root, FWt [5, 10]: 2.7 g
- Shoot, FWt [5, 10]: 5.8 g
- Wilted leaves ([6]; seed treatment 0.1 mM): 18
- Total leaves ([6]; seed treatment 0.1 mM): 61
- % Wilted leaves ([6]; seed treatment 0.1 mM): 30%
- Wilted leaves ([6]; seed treatment 0.5 mM): 14
- Total leaves ([6]; seed treatment 0.5 mM): 64
- % Wilted leaves ([6]; seed treatment 0.5 mM): 22%
- Wilted leaves ([6]; seed treatment 1 mM): 19
- Total leaves ([6]; seed treatment 1 mM): 57
- % Wilted leaves ([6]; seed treatment 1 mM): 33%
